Measurements taken from PMC7730235, “Discovery of a Novel Class of Covalent Dual Inhibitors Targeting the Protein Kinases BMX and BTK” (International Journal of Molecular Sciences, 2020).

Experiments:
[1] = molecular target: T1, BTK (Homo sapiens, UniProt Q06187); assay: Radiometric kinase assay (Reaction Biology HotSpot); assay type: biochemical; conditions: [ATP] = 10 μM; for remaining activity at 0.2 µM: read-out: Residual Activity @ 200 nM, BTK
T1 construct: purchased Reaction Biology Corporation
T1 sequence (Q06187 whole entry): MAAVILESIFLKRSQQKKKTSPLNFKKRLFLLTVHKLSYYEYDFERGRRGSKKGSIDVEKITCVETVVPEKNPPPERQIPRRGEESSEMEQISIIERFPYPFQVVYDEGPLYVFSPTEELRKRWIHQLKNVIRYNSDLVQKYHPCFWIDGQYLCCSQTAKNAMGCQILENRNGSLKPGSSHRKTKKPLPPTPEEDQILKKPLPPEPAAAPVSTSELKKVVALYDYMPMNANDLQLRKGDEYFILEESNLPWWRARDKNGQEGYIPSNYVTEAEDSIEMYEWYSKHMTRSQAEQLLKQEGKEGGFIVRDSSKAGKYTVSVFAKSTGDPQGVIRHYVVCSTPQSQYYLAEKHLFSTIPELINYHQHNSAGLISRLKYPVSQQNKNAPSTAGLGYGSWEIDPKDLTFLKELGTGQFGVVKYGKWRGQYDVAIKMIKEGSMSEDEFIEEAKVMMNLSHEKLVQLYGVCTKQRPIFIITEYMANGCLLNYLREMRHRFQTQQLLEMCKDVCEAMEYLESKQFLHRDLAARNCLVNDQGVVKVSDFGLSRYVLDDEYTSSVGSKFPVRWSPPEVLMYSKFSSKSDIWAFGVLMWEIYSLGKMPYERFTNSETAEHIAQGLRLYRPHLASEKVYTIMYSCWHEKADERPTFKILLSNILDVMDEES
Method: (§1) If not mentioned differently, in vitro profiling of compounds was performed at Reaction Biology Corporation using the HotSpot™ assay platform.

[2] = molecular target: T2, ITK (Homo sapiens, UniProt Q08881); assay: as above; assay type: biochemical; conditions: 200 nM compound, duplicate mean, [ATP] = 10 μM; read-out: Residual Activity @ 200 nM, ITK
T2 construct: purchased Reaction Biology Corporation
T2 sequence (Q08881 1-620): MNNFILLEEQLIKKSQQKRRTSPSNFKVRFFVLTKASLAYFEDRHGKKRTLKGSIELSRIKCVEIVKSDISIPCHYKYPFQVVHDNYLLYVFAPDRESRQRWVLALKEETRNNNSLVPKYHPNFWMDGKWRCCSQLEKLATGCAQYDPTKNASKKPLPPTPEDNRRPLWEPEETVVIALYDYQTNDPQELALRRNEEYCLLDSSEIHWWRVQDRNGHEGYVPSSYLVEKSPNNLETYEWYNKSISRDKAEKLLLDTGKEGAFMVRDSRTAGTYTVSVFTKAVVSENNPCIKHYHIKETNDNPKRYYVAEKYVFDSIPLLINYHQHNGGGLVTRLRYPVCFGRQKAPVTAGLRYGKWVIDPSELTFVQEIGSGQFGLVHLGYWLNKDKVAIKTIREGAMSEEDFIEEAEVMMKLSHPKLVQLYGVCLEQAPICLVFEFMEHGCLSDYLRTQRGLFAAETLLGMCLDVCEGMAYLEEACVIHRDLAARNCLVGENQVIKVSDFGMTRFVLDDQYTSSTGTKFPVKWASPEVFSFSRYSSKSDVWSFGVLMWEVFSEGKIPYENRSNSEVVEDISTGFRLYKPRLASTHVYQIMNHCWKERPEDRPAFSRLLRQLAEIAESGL
Method: as §1

[3] = molecular target: T3, Full length BMX (C-terminal NanoLuc fusion) (Homo sapiens, UniProt P51813); assay: Cellular NanoBRET target engagement assay in HEK293T cells; assay type: cell-based; conditions: 0.5 µM Tracer K4, 2 h incubation
T3 construct: Full length BMX and BTK was cloned into pFC32K; expressed in transfected cells; host or cells: HEK293T
T3 sequence (P51813 1-675): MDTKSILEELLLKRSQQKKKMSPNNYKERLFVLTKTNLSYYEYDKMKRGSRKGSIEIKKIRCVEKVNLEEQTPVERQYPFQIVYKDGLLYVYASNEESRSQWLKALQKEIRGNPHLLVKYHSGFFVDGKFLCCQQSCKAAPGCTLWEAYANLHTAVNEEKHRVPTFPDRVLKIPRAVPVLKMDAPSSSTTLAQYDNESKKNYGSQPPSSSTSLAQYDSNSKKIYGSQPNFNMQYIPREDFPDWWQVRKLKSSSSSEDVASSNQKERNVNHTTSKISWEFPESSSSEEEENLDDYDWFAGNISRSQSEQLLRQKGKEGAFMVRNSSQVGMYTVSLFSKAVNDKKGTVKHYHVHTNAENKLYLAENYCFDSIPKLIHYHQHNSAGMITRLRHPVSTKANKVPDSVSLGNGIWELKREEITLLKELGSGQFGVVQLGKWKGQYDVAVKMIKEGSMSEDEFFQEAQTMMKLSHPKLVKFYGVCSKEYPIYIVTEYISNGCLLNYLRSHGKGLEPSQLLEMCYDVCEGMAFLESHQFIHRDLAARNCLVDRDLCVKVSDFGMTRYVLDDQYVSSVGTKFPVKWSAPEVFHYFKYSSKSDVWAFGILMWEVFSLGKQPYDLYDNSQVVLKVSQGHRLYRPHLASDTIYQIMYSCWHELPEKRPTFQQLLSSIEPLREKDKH
Method: (§2) Full length BMX and BTK was cloned into pFC32K (Promega, Madison, WI, USA) for expression of a C-terminal NanoLuc fusion. The plasmids were transfected into HEK293T cells cultured in DMEM (Gibco, Waltham, MA, USA) supplemented with 10% fetal bovine serum (Gibco, Waltham, MA, USA) and Penicillin/Streptamycin (Gibco, Waltham, MA, USA). NanoBRET assays were performed using the protocol published previously. Briefly, after transfection and 20 h incubation cells were harvested and subsequently resuspended in OptiMEM (Gibco, Waltham, MA, USA). Cells were aliquoted onto […] (Greiner, Kremsmünster, Austria), and inhibitors as well as 0.5 µM Tracer K4 (Promega) for BMX or 0.5 µM Tracer K5 (Promega, Madison, WI, USA) for BTK were added using an ECHO acoustic dispenser. The plates were incubated at 37 °C with 5% CO2 for 2 h prior to the addition of both NanoBRET NanoGlo substrate (Promega, Madison, WI, USA) and extracellular NanoLuc inhibitor. BRET luminescence (450 nm for donor emission and 610 nm for BRET signal) was measured using PHERAstar FSX plate reader (BMG Labtech, Ortenberg, Germany). Milli-BRET units (mBU) were calculated as a ratio between BRET signal and the overall measured luminescence. A dose–response fitting was applied and IC50 values were calculated using the Prism software. […] Experiments were performed as tripicates and repeated at least three times.

[4] = molecular target: T4, Full length BTK (C-terminal NanoLuc fusion) (Homo sapiens, UniProt Q06187); assay: as above; assay type: cell-based; conditions: 0.5 µM Tracer K5, 2 h incubation
T4 construct: Full length BMX and BTK was cloned into pFC32K; expressed in transfected cells; host or cells: HEK293T
T4 sequence (Q06187 whole entry, the tested form may be a part): as the sequence (Q06187 whole entry) above
Method: as §2

[5] = molecular target: T5, kinase domain of BMX (Homo sapiens, UniProt P51813); assay: Thermal shift (ΔTm) assay; assay type: binding; conditions: 2 μM kinase domain, 10 μM inhibitor; mean ± SD of at least three measurements
T5 construct: The kinase domains of JAK3 and BMX at 2 μM
Method: (§3) The kinase domains of JAK3 and BMX at 2 μM were mixed with the inhibitors at 10 μM, and subsequently SyPRO orange dye (Invitrogen Carlsbad, CA, USA) was added. The thermal shift assay and data evaluation were performed as described previously using a Real-Time PCR Mx3005p machine (Stratagene, La Jolla, CA, USA).

[6] = molecular target: T6, kinase domain of JAK3 (Homo sapiens, UniProt P52333); assay: Thermal shift (ΔTm) assay; assay type: binding; conditions: 2 μM kinase domain, 10 μM inhibitor; mean ± SD of at least three measurements
T6 construct: The kinase domains of JAK3 and BMX at 2 μM; made in house
T6 sequence (P52333 822-1111 limits assumed): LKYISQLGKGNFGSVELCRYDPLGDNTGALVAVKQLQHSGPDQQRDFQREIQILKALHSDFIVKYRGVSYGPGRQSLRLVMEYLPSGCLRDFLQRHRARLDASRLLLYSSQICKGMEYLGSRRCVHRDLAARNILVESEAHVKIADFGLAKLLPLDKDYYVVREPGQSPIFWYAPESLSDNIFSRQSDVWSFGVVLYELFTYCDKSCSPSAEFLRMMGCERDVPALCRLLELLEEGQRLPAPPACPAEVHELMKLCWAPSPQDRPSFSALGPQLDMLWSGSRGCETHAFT
Method: as §3

[7] = 200 nM compound, duplicate mean

remaining activity at 0.2 µM [1, 7] [%] | remaining activity at 0.2 µM [2] [%] | IC50 [3] [nM] | IC50 [4] [nM] | ΔTm at 10 µM [5] [°C] | ΔTm at 10 µM [6] [°C] | Residual Activity @ 200 nM, BTK [1, 7] [%] | IC50 ([1]; radiometric HotSpot, five-dose singlicate) [nM] | SMILES
18.2 | 88.1 | 26 ± 11 | 15 ± 2 |  |  |  |  | C=CC(=O)Nc1cccc(-c2c[nH]c3ncccc23)c1 [Compound 9a, N-(3-(1H-pyrrolo[2,3-b]pyridin-3-yl)phenyl)acrylamide]
18.9 | 90.8 | 765 ± 283 | 283 ± 24 | 10.49 ± 0.09 | 21.07 ± 0.03 |  |  | C=CC(=O)Nc1cccc(-c2c[nH]c3ncc(C(N)=O)cc23)c1 [Compound 10a, 3-(3-acrylamidophenyl)-1H-pyrrolo[2,3-b]pyridine-5-carboxamide]
 |  | 6070 ± 1830 | 2070 ± 32 | 5.31 ± 0.18 | 9.12 ± 0.02 |  |  | C=CC(=O)Nc1cccc(-c2c[nH]c3ncc(C(=O)NC4CCCC4)cc23)c1 [Compound 11a, 3-(3-acrylamidophenyl)-N-cyclopentyl-1H-pyrrolo[2,3-b]pyridine-5-carboxamide]
70 |  | > 10000 | 8210 ± 3460 |  |  | 69.7 |  | CCC(=O)Nc1cccc(-c2c[nH]c3ncc(NC(=O)C4CCCC4)cc23)c1 [Compound 12b, N-(3-(3-propionamidophenyl)-1H-pyrrolo[2,3-b]pyridin-5-yl)cyclopentanecarboxamide]
0.8 | 94 | 3 ± 1 | 9 ± 1 | 11.52 ± 0.08 | 7.36 ± 0.44 |  | < 1 | C=CC(=O)Nc1cccc(-c2c[nH]c3ncc(NC(=O)c4cccs4)cc23)c1 [Compound 12c, N-(3-(3-acrylamidophenyl)-1H-pyrrolo[2,3-b]pyridin-5-yl)thiophene-2-carboxamide]
